In patent US20260294915A1, “COMBINATION THERAPY COMPRISING A MAT2A INHIBITOR AND A TOPOISOMERASE INHIBITOR, A SPLICING INHIBITOR SULFONAMIDE, OR A KIF18 INHIBITOR” (IDEAYA BIOSCIENCES, INC., priority 2023, published 2026):
Marks after values point to notes of the source that are not given here.

Columns and labels:
Assay in all cases: 10-day proliferation (CTG), SPLAM titration + 1000 nM Compound A, Bliss (Example 5; Tables 12-19)
Format in all cases: cell-based
Parameters in all cases: key: GDI scale -100 to 100; 0 = cell number at T0; <0 cytotoxic
NCI-H838 = test system: NCI-H838
Method: (§1) Synergy was measured across the Indisulam titration with 1000 nM Compound A by Bliss Independence analysis. Bliss scores >10 are indicated by “*” and are considered synergistic. […] Synergy as reported using Bliss may be underrepresented within cytotoxic dose ranges. Growth death index values are shown for the combination titration and each single agent Compound A (Cmpd A) and Indisulam on a scale of −100 to 100 with the midpoint (0) being the number of cells at the beginning of the combination (T0). Scores less than 0 are indicated with “**” and are representative of a cytotoxic response. Bliss and GDI values are shown for five MTAP-deficient cell lines: NCI-1H838 (12A), SW900 (12B), RT112/84 (12C), UMUC5 (121D), and UMUC11 (12E).
(§2) A 10-day proliferation assay was performed in a panel of 5 MTAP-deficient and 2 wild type non-small cell lung and bladder cancer cell lines. Optimal cell seeding for all cell lines was determined by assessing the growth over a range of seeding densities in a 384-well format to identify conditions that permitted proliferation for 10 days. Cells were then plated at the optimal seeding density and treated with 20-point, two-fold dilution series of each of four structurally different SPLAMs in combination with a 1000 nM fixed concentration of Compound A. Single agent titrations for Compound A and each SPLAM were included for comparison. Concentrations tested for each SPLAM alone or in combination ranged from 0.04 nM to 20,000 nM. A plate of cells was harvested at the time of compound addition to quantify the number of cells at the start of the combination (T0). For cell quantification, the harvested cells were lysed with Promega CellTiter-Glo (CTG) reagent according to the manufacturer's protocol and the chemiluminescent signal was detected as described in Example 1 above. Cells were incubated with the drug combinations at 37° C. with 5% CO2 for 10 days. Cells were then lysed with CTG and the chemiluminescent signal was measured.
(§3) CTG values obtained after the 10-day treatment were background subtracted and expressed as a percent of the T0 value set at 100%. Data were plotted against compound concentration and fit with a four-parameter equation to generate single agent dose response curves. Percent inhibition was determined for each combination and single agent concentration compared to a DMSO control. In addition, the overall net growth or death of the cells was calculated and reported as a growth death index (GDI) value on a scale of −100 to 100 with the midpoint (0) being the number of cells at the beginning of the combination (T0).
(§4) Predicted inhibition was calculated using (Ea+Eb)−(Ea*Eb) where E equals the effect (inhibition) of each single agent (a and b). A difference between the observed inhibition percentage and the predicted inhibition percentage greater than 10% was considered synergistic. A Bliss score was only reported for combinations eliciting >20% growth inhibition (GDI value <80). Since Bliss is calculated based on growth inhibition, scores within cytotoxic dose ranges may not accurately reflect synergistic cytoxicity.
(§5) Synergy was measured across the E7820 titration with 1000 nM Compound A by Bliss Independence analysis. Bliss scores >10 are indicated by “*” and are considered synergistic. […] Synergy as reported using Bliss may be underrepresented within cytotoxic dose ranges. Growth death index values are shown for the combination titration and each single agent Compound A (Cmpd A) and Indisulam on a scale of −100 to 100 with the midpoint (0) being the number of cells at the beginning of the combination (T0). Scores less than 0 are indicated by “**” and are representative of a cytotoxic response. Bliss and GDI values are shown for five MTAP-deficient cell lines: NCI-1H838 (14A), SW900 (14B), RT112/84 (14C), UMUC5 (141)), and UMUC11 (14E).
(§6) Synergy was measured across the Chloroquinoxaline Sulfonamide titration with 1000 nM Compound A by Bliss Independence analysis.

RT112/84 = conditions: for GDI (growth death index), single agent Cmpd A: RT112/84, 1000 nM Compound A
Method: as §1, §2, §3, §4, §5, §6

UMUC11 = conditions: for GDI (growth death index), single agent Cmpd A: UMUC11, 1000 nM Compound A
Method: as §1, §2, §3, §4, §5, §6

UMUC5 = conditions: for GDI (growth death index), single agent Cmpd A: UMUC5, 1000 nM Compound A
Method: as §1, §2, §3, §4, §5, §6

[1] = SPLAM 0.04 nM, alone or + 1 uM Cmpd A
[2] = SPLAM 0.1 nM, alone or + 1 uM Cmpd A
[3] = SPLAM 0.2 nM, alone or + 1 uM Cmpd A
[4] = SPLAM 0.3 nM, alone or + 1 uM Cmpd A
[5] = SPLAM 0.6 nM, alone or + 1 uM Cmpd A
[6] = SPLAM 1.2 nM, alone or + 1 uM Cmpd A
[7] = SPLAM 2.4 nM, alone or + 1 uM Cmpd A
[8] = SPLAM 4.9 nM, alone or + 1 uM Cmpd A
[9] = SPLAM 9.8 nM, alone or + 1 uM Cmpd A
[10] = SPLAM 19.5 nM, alone or + 1 uM Cmpd A
[11] = SPLAM 39.1 nM, alone or + 1 uM Cmpd A
[12] = SPLAM 78.1 nM, alone or + 1 uM Cmpd A
[13] = SPLAM 156.3 nM, alone or + 1 uM Cmpd A
[14] = SPLAM 312.5 nM, alone or + 1 uM Cmpd A
[15] = SPLAM 625 nM, alone or + 1 uM Cmpd A
[16] = SPLAM 1250 nM, alone or + 1 uM Cmpd A
[17] = SPLAM 2500 nM, alone or + 1 uM Cmpd A
[18] = SPLAM 5000 nM, alone or + 1 uM Cmpd A
[19] = SPLAM 10000 nM, alone or + 1 uM Cmpd A
[20] = SPLAM 20000 nM, alone or + 1 uM Cmpd A

Nc1nc(=O)n(-c2ccccc2Cl)c2nc(C(F)(F)F)ccc12 [Compound A]
100: GDI (growth death index), single agent Cmpd A (UMUC11; Table 16E) | GDI (growth death index), single agent Cmpd A (UMUC11; Table 18E) | GDI (UMUC11; single agent Cmpd A, 1000 nM)
62: GDI (growth death index), single agent Cmpd A (RT112/84; Table 16C) | GDI (growth death index), single agent Cmpd A (RT112/84; Table 18C) | GDI (RT112/84; single agent Cmpd A, 1000 nM)
58: GDI (growth death index), single agent Cmpd A (UMUC5; Table 16D) | GDI (growth death index), single agent Cmpd A (UMUC5; Table 18D) | GDI (UMUC5; single agent Cmpd A, 1000 nM)
49: GDI (growth death index), single agent Cmpd A (NCI-H838; NCI-H838, 1000 nM Compound A, Table 18A) | GDI (NCI-H838; single agent Cmpd A, 1000 nM)

Cc1ccc(NS(=O)(=O)c2cccc(C#N)c2)c2[nH]cc(C#N)c12 [Compound E7820, 3-cyano-N-(3-cyano-4-methyl-1H-indol-7-yl)benzenesulfonamide]
−64**: GDI (NCI-H838; [19])
1: GDI (NCI-H838; [17]) | GDI (UMUC11; [20])
3: GDI (UMUC11; [19]) | GDI (UMUC5; [20])
6: GDI (RT112/84; [15]) | GDI (UMUC5; [19])
−46**: GDI (NCI-H838; [20])
−35**: GDI (RT112/84; [16])
13: GDI (NCI-H838; [15])
90: GDI (RT112/84; [13])
5: GDI (UMUC11; [17])
−84**: GDI (RT112/84; [17])
31: GDI (RT112/84; [14]) | GDI (UMUC11; [15]) | GDI (UMUC5; [15])
73: GDI (UMUC5; [14])
−13**: GDI (NCI-H838; [18])
89: GDI (RT112/84; [1])
4: GDI (NCI-H838; [16]) | GDI (UMUC11; [18])
100: GDI (NCI-H838; [1]) | GDI (NCI-H838; [2]) | GDI (NCI-H838; [3]) | GDI (NCI-H838; [4]) | GDI (NCI-H838; [5]) | GDI (NCI-H838; [6]) | GDI (NCI-H838; [7]) | GDI (NCI-H838; [8]) | GDI (NCI-H838; [9]) | GDI (NCI-H838; [10]) | GDI (NCI-H838; [11]) | GDI (NCI-H838; [12]) | GDI (NCI-H838; [13]) | GDI (RT112/84; [3]) | GDI (RT112/84; [4]) | GDI (RT112/84; [5]) | GDI (RT112/84; [6]) | GDI (RT112/84; [7]) | GDI (RT112/84; [9]) | GDI (RT112/84; [10]) | GDI (RT112/84; [11]) | GDI (RT112/84; [12]) | GDI (UMUC11; [1]) | GDI (UMUC11; [2]) | GDI (UMUC11; [3]) | GDI (UMUC11; [4]) | GDI (UMUC11; [5]) | GDI (UMUC11; [6]) | GDI (UMUC11; [7]) | GDI (UMUC11; [8]) | GDI (UMUC11; [9]) | GDI (UMUC11; [10]) | GDI (UMUC11; [11]) | GDI (UMUC11; [12]) | GDI (UMUC11; [13]) | GDI (UMUC5; [1]) | GDI (UMUC5; [2]) | GDI (UMUC5; [3]) | GDI (UMUC5; [4]) | GDI (UMUC5; [5]) | GDI (UMUC5; [6]) | GDI (UMUC5; [7]) | GDI (UMUC5; [8]) | GDI (UMUC5; [9]) | GDI (UMUC5; [10]) | GDI (UMUC5; [11]) | GDI (UMUC5; [12])
15: GDI (UMUC5; [16]) | GDI (UMUC5; [17])
99: GDI (UMUC5; [13])
94: GDI (RT112/84; [2]) | GDI (RT112/84; [8])
11: GDI (UMUC11; [16])
−100**: GDI (RT112/84; [18]) | GDI (RT112/84; [19]) | GDI (RT112/84; [20])
76: GDI (NCI-H838; [14]) | GDI (UMUC11; [14])
7: GDI (UMUC5; [18])

NS(=O)(=O)c1ccc(S(=O)(=O)Nc2cccc3c(Cl)c[nH]c23)cc1 [Indisulam, N-(3-chloro-1H-indol-7-yl)benzene-1,4-disulfonamide]
−63**: GDI (RT112/84; [18])
26: GDI (UMUC5; [15])
−34**: GDI (RT112/84; [16])
−13**: GDI (NCI-H838; [18])
98: GDI (RT112/84; [1]) | GDI (UMUC5; [6])
−92**: GDI (RT112/84; [20])
−74**: GDI (RT112/84; [19])
−50**: GDI (NCI-H838; [19])
11: GDI (NCI-H838; [15])
−52**: GDI (NCI-H838; [20])
100: GDI (NCI-H838; [1]) | GDI (NCI-H838; [2]) | GDI (NCI-H838; [3]) | GDI (NCI-H838; [4]) | GDI (NCI-H838; [5]) | GDI (NCI-H838; [6]) | GDI (NCI-H838; [7]) | GDI (NCI-H838; [8]) | GDI (NCI-H838; [9]) | GDI (NCI-H838; [10]) | GDI (NCI-H838; [11]) | GDI (NCI-H838; [12]) | GDI (NCI-H838; [13]) | GDI (RT112/84; [2]) | GDI (RT112/84; [3]) | GDI (RT112/84; [4]) | GDI (RT112/84; [7]) | GDI (RT112/84; [8]) | GDI (RT112/84; [9]) | GDI (RT112/84; [10]) | GDI (RT112/84; [11]) | GDI (RT112/84; [12]) | GDI (UMUC11; [1]) | GDI (UMUC11; [2]) | GDI (UMUC11; [3]) | GDI (UMUC11; [4]) | GDI (UMUC11; [5]) | GDI (UMUC11; [6]) | GDI (UMUC11; [7]) | GDI (UMUC11; [8]) | GDI (UMUC11; [9]) | GDI (UMUC11; [10]) | GDI (UMUC11; [11]) | GDI (UMUC11; [12]) | GDI (UMUC11; [13]) | GDI (UMUC5; [1]) | GDI (UMUC5; [2]) | GDI (UMUC5; [3]) | GDI (UMUC5; [4]) | GDI (UMUC5; [5]) | GDI (UMUC5; [7]) | GDI (UMUC5; [8]) | GDI (UMUC5; [9]) | GDI (UMUC5; [10]) | GDI (UMUC5; [11]) | GDI (UMUC5; [12])
54: GDI (NCI-H838; [14])
2: GDI (NCI-H838; [16]) | GDI (UMUC11; [18]) | GDI (UMUC11; [19]) | GDI (UMUC5; [19]) | GDI (UMUC5; [20])
13: GDI (UMUC11; [16])
44: GDI (RT112/84; [14])
99: GDI (RT112/84; [13])
95: GDI (RT112/84; [6])
5: GDI (UMUC11; [17]) | GDI (UMUC5; [16])
94: GDI (UMUC5; [13])
35: GDI (UMUC11; [15])
73: GDI (UMUC11; [14])
96: GDI (RT112/84; [5])
1: GDI (NCI-H838; [17]) | GDI (UMUC11; [20])
3: GDI (UMUC5; [17]) | GDI (UMUC5; [18])
69: GDI (UMUC5; [14])
−76**: GDI (RT112/84; [17])
12: GDI (RT112/84; [15])
